# Entries after “also recorded” stand apart in the source; their conditions may differ.
# Experiments:
# [1] = target: T1, GAL4-hRXRα (Homo sapiens, UniProt P19793); test: Cotransfection with GAL4 chimeric receptor, TK-MH100×4-LUC reporter in CV-1 cells; type: cell-based; conditions: 10^-5 M ligand
# T1 construct: CMX plasmid, CV-1 cells, TK-MH100x4-LUC
# T1 sequence (P19793 203-462): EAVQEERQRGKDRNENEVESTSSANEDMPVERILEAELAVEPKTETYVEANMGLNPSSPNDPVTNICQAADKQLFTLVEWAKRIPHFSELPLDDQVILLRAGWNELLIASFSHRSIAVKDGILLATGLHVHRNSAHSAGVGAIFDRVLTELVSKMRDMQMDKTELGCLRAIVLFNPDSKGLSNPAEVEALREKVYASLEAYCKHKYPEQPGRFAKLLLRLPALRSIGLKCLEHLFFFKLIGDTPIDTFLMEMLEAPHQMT
# Excerpt: (§1) Thus, CV-1 cells were cotransfected with the expression plasmid CMX-GAL4-hRXRα, CMX-GAL4-hRARα, CMX-GAL4-RARβ or CMX-GAL4-RARγ and the reporter plasmid TK-MH100×4-LUC. The constructs consisted of the GAL4 DNA binding domain (amino acids 1-147; see Sadowski and Ptashne in Nucl. Acids Res. 17:7539 (1989)) ligated in frame to the ligand binding and C-terminal activation domains of hRARα (amino acids 203-462; see Giguere et al., in Nature 330:624 (1987), hRARβ (amino acids 178-448; see Brand et al., in Nature 332:850 (1988), RARγ (amino acids 187-454; see Ishikawa et al., in Mol. Endo. 4:837 (1990) and RXRα (amino acids 203-462; see Mangelsdorf et al., in Nature 345:224 (1990). These GAL4-receptor chimeras were then introduced into CMX expression vectors (see Umesono et al., in Cell 65:1255 (1991)). The GAL4-responsive reporter plasmid, TK-MH100×4-LUC, was constructed by inserting 4 copies of the yeast UASG enhancer (i.e., MH100; see Webster et al., in Cell 52:169 (1988)) into the luciferase reporter plasmid TK-LUC. CV-1 cells seeded into 48 well culture plates were co-transfected with 80 ng of the reporter plasmid TK-Mh100×4-LUC, 50 ng of CMX-βgal expression plasmid, and 80 ng of receptor expression plasmid (either CMX-GAL4 as a control, CMX-GAL4-hRARα, CMX-GAL4-hRARβ, CMX-GAL4-hRARγ or CMX-GAL4-hRXRα). […] Cotransfections, ligand addition and luciferase assays were performed as described in Example 3.
# (§2) The above-described chimeric proteins can bind to a GAL4 upstream activation sequence (UASG) in the promoter of a luciferase reporter, but can only activate transcription in the presence of the hybrid receptor's ligand. The distinct advantage of using the GAL4-receptor system, instead of the wild-type receptors and response elements, is that the GAL4-hybrids provide a sensitive and effective means for assaying receptor/ligand interactions, even in the presence of the cell's endogenous wild-type receptors.
# [2] = previous studies (Quistad et al.); a major product is methoprene acid; cited from earlier work
# [3] = target: T2, hRXRα (Homo sapiens, UniProt P19793); test: Competitive ligand binding, competition for [3H]9cRA binding; conditions: 40 nM [3H]9cRA, increasing concentrations of unlabelled compound
# T2 sequence (P19793 1-462): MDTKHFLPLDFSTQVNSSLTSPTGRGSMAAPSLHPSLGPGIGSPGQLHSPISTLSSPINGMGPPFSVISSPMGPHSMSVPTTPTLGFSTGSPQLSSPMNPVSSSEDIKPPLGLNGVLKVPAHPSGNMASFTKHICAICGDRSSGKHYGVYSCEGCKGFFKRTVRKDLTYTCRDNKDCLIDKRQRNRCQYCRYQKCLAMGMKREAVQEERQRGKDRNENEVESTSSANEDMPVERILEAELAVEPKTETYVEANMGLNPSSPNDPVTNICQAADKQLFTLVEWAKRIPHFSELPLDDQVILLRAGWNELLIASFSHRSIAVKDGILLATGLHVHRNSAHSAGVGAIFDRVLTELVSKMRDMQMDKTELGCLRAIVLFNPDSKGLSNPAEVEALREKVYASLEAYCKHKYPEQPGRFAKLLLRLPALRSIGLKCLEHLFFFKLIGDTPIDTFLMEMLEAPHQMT
# Procedure: Binding analysis was performed as described by Boehm et al., in J. Med. Chem. 37:2930-2941 (1994). Compounds used in these studies were prepared according to Wecksler and Norman (Anal. Biochem. 92:314-323 (1979).
# [4] = target: T2, hRXRα; test: Cotransfection assay in Schneider cells, RXR expression plasmid and ADH-CRBPII-LUC luciferase reporter; type: cell-based; conditions: for activation of RXR (transcription from the reporter construct), in words: Schneider cells, ADH-CRBPII-LUC
# Procedure: Candidate ligands were initially tested in Schneider cells cotransfected with an RXR expression plasmid and a luciferase reporter plasmid containing an RXR specific response element.
# Cell lysates were then assayed for luciferase activity, which is expressed as relative light units (RLU) and represents the mean of triplicate assays (±SEM) normalized to β-galactosidase as an internal control. […] After 24 hours, ligand was added to the transfected cells. Thirty six hours later, the cells were harvested and extracts prepared and assayed for enzyme activity as described by Heyman et al., supra, and Clayton, supra. Luciferase values were normalized for transfection and harvesting efficiency by measuring β-galactosidase activity, and the results reported as average relative light units (RLU) for at least two replicates.
# [5] = test system: RXR-alpha; test: Expression of genes under the control of regulatory elements of apolipoprotein AI; type: cell-based
# [6] = test system: mouse RXRβ; test: Transactivation dose response, CRBPII-LUC reporter in Schneider and CV-1 cells; type: cell-based; conditions: Schneider cells and CV-1 cells
# Procedure: (§3) Cell lysates were then assayed for luciferase activity, which is expressed as relative light units (RLU) and represents the mean of triplicate assays (±SEM) normalized to β-galactosidase as an internal control. Thus, Schneider cells in 6-well culture plates were co-transfected with 0.5 μg ADH-CRBPII-LUC, 0.5 μg A5C-βgal and 1 μg of receptor plasmid (either A5C-mRXRα, A5C-mRXRβ, A5C-mRXRγ or A5C-hRXRα) by the CaPO4 precipitation method, as described by Heyman et al., in Cell 68:397 (1992) and Clayton in Aspects of Terpenoid Chemistry and Biology, T. W. Goodwin, ed. (Academic Press, London) pp. 1-23 (1971). After 24 hours, ligand was added to the transfected cells. Thirty six hours later, the cells were harvested and extracts prepared and assayed for enzyme activity as described by Heyman et al., supra, and Clayton, supra. Luciferase values were normalized for transfection and harvesting efficiency by measuring β-galactosidase activity, and the results reported as average relative light units (RLU) for at least two replicates.
# (§4) To further test the ability of methoprene acid to function as an RXR ligand, the transactivation properties of methoprene on all three RXR subtypes was investigated. FIG. 3 presents the dose responses of the three RXR subtypes to methoprene acid in insect Schneider cells (FIG. 3A), or mammalian CV-1 cells (FIG. 3B) cotransfected with expression plasmids for mouse RXRα, RXRβ, or RXRγ and the reporter plasmid ADH-CRBPII-LUC (for Schneider cells) or TK-CRBPII-LUC (for CV-1 cells).
# (§5) Experiments in Schneider cells were conducted as described in Example 1. Experiments in CV-1 cells were conducted as follows. CV-1 cells were seeded into 48-well sulture dishes and co-transfected with 50 ng of TK-CRBPII-LUC reporter plasmid, 50 ng of CMX-βgal expression plasmid, and 25 ng of expression plasmid for receptor (either CMX-mRXRα, CMX-mRXRβ or CMX-mRXRγ) by the CaPO4 precipitation method, as described by Heyman et al., supra and Clayton supra. […] Luciferase activity was determined as described by Unsworth et al., in Life Sciences 15:1649 (1974).
# [7] = test system: mouse RXRγ; test: as above; type: cell-based; conditions: Schneider cells and CV-1 cells
# Procedure: as §3, §4, §5
# [8] = test system: mouse RXRα; test: as above; type: cell-based; conditions: Schneider cells and CV-1 cells
# Procedure: as §3, §4, §5
# [9] = target: T3, GAL4-hRARγ (Homo sapiens, UniProt P13631); test: Cotransfection with GAL4 chimeric receptor, TK-MH100×4-LUC reporter in CV-1 cells; type: cell-based; conditions: 10^-5 M ligand
# T3 construct: CMX plasmid, CV-1 cells, TK-MH100x4-LUC
# T3 sequence (P13631 187-454): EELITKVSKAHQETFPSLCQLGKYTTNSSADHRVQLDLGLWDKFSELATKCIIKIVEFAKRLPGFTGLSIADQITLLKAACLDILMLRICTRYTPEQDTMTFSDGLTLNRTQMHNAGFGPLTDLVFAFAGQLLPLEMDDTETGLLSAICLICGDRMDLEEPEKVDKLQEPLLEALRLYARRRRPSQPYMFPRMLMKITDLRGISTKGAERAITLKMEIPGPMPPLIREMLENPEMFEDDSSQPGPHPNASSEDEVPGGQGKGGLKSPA
# Excerpt: as §1, §2
# [10] = target: T4, GAL4-hRARα (Homo sapiens, UniProt P10276); test: as above; type: cell-based; conditions: 10^-5 M ligand
# T4 construct: CMX plasmid, CV-1 cells, TK-MH100x4-LUC
# T4 sequence (P10276 203-462): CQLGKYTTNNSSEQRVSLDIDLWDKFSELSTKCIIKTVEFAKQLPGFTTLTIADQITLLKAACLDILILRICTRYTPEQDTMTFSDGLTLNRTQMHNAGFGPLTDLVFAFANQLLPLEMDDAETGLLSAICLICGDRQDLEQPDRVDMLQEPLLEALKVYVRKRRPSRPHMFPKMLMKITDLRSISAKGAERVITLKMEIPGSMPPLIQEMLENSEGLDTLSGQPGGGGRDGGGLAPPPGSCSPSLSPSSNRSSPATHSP
# Excerpt: as §1, §2
# [11] = target: T5, GAL4-hRARβ (Homo sapiens, UniProt P10826); test: as above; type: cell-based; conditions: 10^-5 M ligand
# T5 construct: CMX plasmid, CV-1 cells, TK-MH100x4-LUC
# T5 sequence (P10826 185-455): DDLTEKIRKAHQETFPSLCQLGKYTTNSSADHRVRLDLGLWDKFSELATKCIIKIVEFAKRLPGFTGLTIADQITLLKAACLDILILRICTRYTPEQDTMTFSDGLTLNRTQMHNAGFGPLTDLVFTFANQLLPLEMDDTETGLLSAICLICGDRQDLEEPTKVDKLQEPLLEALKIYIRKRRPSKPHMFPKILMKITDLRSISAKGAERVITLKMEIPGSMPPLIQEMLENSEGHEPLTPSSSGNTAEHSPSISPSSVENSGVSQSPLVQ
# Excerpt: as §1, §2
# [12] = 36 h, read-out: induction of luciferase reporter above methanol control
smiles,measurement,setting,value
"C/C(=C\c1ccc(C(=O)O)cc1)c1ccc2c(c1)C(C)(C)CCC2(C)C [TTNPB, (E)-4-[2-(5,6,7,8-tetrahydro-5,5,8,8-tetramethyl-2-napthalenyl)-1-propenyl]benzoic acid, reference compound]","activation of transcription with GAL4-RXR, in words",[1],exclusive response
"COC(C)(C)CCCC(C)C/C=C/C(C)=C/C(=O)OC(C)C (stereo not drawn) [methoprene, isopropyl (2E,4E)-11-methoxy-3,7,11-trimethyl-2,4-dodecadienoate]",metabolism within cells,[2],metabolized within cells to several products
same,"competition for [3H]9cRA binding to RXRα, in words",[3],unable to displace 9cRA binding at any concentration; also recorded: unable to competitively bind RXR at any concentration
same,fold induction at 100 µM,[4]; [12],80
same,"activation of RXR (transcription from the reporter construct), in words",[4],activate RXR
"COC(=O)/C=C(\C)CC/C=C(\C)CCC1OC1(C)C (stereo not drawn) [JH III, methyl (2E,6E)-10,11-epoxy-3,7,11-trimethyl-2,6dodecadienoate, reference compound]","activation of RXR (transcription from the reporter construct), in words",[4],do not activate RXR
"CC(C)=CCC/C(C)=C/CC/C(C)=C/CO [farnesol, (2E,6E,10E)-3,7,11-trimethyl-2,6,10-dodecatrienol, reference compound]","activation of RXR (transcription from the reporter construct), in words",[4],do not activate RXR
CC(/C=C/CC(C)CCCC(C)C)=C\C(=O)O (stereo not drawn) [hydroprene acid],"competition for [3H]9cRA binding to RXRα, in words",[3],observed to bind RXR
same,fold induction at 100 µM,[4]; [12],81
COC(C)(C)CCCC(C)C/C=C/C(C)=C/C(=O)O (stereo not drawn) [methoprene acid],effect of RXR-alpha in the presence of ligand on expression of genes under apolipoprotein AI regulatory elements,[5],strong effect
same,"competition for [3H]9cRA binding to RXRα, in words",[3],competes well
same,"response of RXRβ (transactivation), in words",[6],responds only weakly
same,"response of RXRγ (transactivation), in words",[7],respond strongly
same,"response of RXRα (transactivation), in words",[8],respond strongly
same,"activation of transcription with GAL4-RARγ, in words",[9],specific for activation of only the GAL4-RXR
same,"activation of transcription with GAL4-RARα, in words",[10],specific for activation of only the GAL4-RXR
same,"activation of transcription with GAL4-RXR, in words",[1],specific for activation of only the GAL4-RXR
same,"activation of transcription with GAL4-RARβ, in words",[11],specific for activation of only the GAL4-RXR
same,fold induction at 10 µM,[4]; [12],95
"CC1=C(/C=C/C(C)=C\C=C\C(C)=C\C(=O)O)C(C)(C)CCC1 [9cRA, 9-cis-retinoic acid, reference compound]","activation of transcription with GAL4-RARγ, in words",[9],can activate transcription
same,"activation of transcription with GAL4-RARα, in words",[10],can activate transcription
same,"activation of transcription with GAL4-RARβ, in words",[11],can activate transcription
"CCOC(=O)/C=C(C)/C=C/CC(C)CCCC(C)C (stereo not drawn) [hydroprene, ethyl (2E,4E)-3,7,11-trimethyl-2,4-dodecadienoate]","competition for [3H]9cRA binding to RXRα, in words",[3],not
same,"activation of RXR (transcription from the reporter construct), in words",[4],activate RXR

# — US5990163A, “Selective modulation of processes mediated by retinoid X receptors, and compounds useful therefor” (The Salk Institute for Biological Studies, priority 1995, dated 1999)
